The record followed here is article PMC7481839, “Switchable foldamer ion channels with antibacterial activity” (Chemical Science, 2020).

Converted amounts (≈) assume the structure as drawn. Where a SMILES comes first, the peptide text is derived from it.

A short description of series [1]: HPTS assay of ionophoric activity in phospholipid vesicles. Type of series: biochemical. As to conditions: Table S1, HPTS assay. As for the experimental part:
The membrane activity of 1, 2, Cu[1]Cl2 and Cu[2]Cl2 was assessed in phospholipid vesicle membranes using 8-hydroxypyrene-1,3,6-trisulfonate (HPTS) assays. HPTS assays can show ionophoric activity that occurs via any combination of M^+/H^+ antiport, X^–/OH^– antiport, M^+/OH^– symport and X^–/H^+ symport.
The HPTS assays of 1, 2, Cu[1]Cl2 and Cu[2]Cl2 used 1 : 4 cholesterol : egg yolk phosphatidylcholine (EYPC) vesicles in MOPS buffer (pH 7.4) with 100 mM of an appropriate salt (e.g. KCl, KBr, NaCl), following previously reported procedures.[16] The resulting normalised data were fitted to pseudo first-order rate equations as an approximation (see the ESI ^†).[32] Although the change in fluorescence after the “burst phase” is likely to arise from multiple processes, including inter-vesicle transfer of foldamers,[33] this fitting allows the relative effectiveness of each compound to be compared.
CuCl2 was added at 2 min, followed by addition of 2.2 eq. EDTA at 3 min.
5.1 Preparation of large unilamellar vesicles for HPTS assays
The HPTS assays of 1, 2, Cu[1]Cl2 and Cu[2]Cl2 used 1:4 cholesterol:egg yolk phosphatidylcholine (EYPC) vesicles in MOPS buffer (pH 7.4) with 100 mM of an appropriate salt (e.g. KCl, KBr, NaCl).5 Aliquots of 1, 2, Cu[1]Cl2 or Cu[2]Cl2 dissolved in methanol were mixed with the vesicle suspensions for 60 s before adding a base pulse to change the external pH to 8.4.6 The resulting change in HPTS fluorescence was followed for 6 min, then Triton X-100 was added at 7 min to lyse the vesicles […]. Each assay was repeated three times on new vesicles. The resulting normalized data were fitted to pseudo first-order rate equations as an approximation (see the ESI), similar to the procedure of Regen and co-workers.7 Although the change in fluorescence after the “burst phase” is likely to arise from multiple processes, including inter-vesicle transfer of foldamers,8 this fitting allows the relative effectiveness of each compound to be compared.
Egg yolk phosphatidylcholine (EYPC, 64 μmol) and cholesterol (16 μmol) were dissolved in 2 mL chloroform (spectroscopic grade). The solvent was removed under reduced pressure resulting in a thin film of lipid on the inside wall of the round bottom flask, which was dried further under vacuum for 2 hours. 1.2 mL of a trisodium 8-hydroxypyrene-1,3,6-trisulfonate (HPTS, 100 mM, pH = 7.4) dye in (3-(N-morpholino) propanesulfonic acid) buffer (20 mM MOPS, 100 mM MX (M = K or Na, X = Cl, Br or NO3− adjusted to pH 7.4 using NaOH) were added to the lipid film. Afterwards, the thin film was detached from the sides of the flask by vortex mixing. The resulting lipid suspension was then extruded 19 times through an 800 nm polycarbonate membrane in an Avestin Liposofast extruder to give a suspension of 800 nm large unilamellar vesicles. Unencapsulated HPTS dye was removed by gel permeation chromatography on PD-10 SEC columns (Sephadex G-25). Hereby 1 mL of the 800 nm vesicle suspension was diluted to 2.5 mL with 20 mM MOPS buffer solution and loaded onto the GPC column. The suspension run onto the column, followed by 3.5 mL of 20 mM MOPS buffer, which were collected, giving a stock vesicle solution of 3.5 mL (final concentration of lipids = 15.23 mM). This solution of vesicles was used directly in the HPTS experiments.
5.2 Procedure for HPTS assays
100 μL of the vesicle stock solution was diluted to 2 mL with 20 mM MOPS buffer (final lipid concentration in cuvette 0.762 mM). To this vesicle suspension was then added 20 μL of the principle compound in methanol (1 mM or 0.6 mM for Cu[2]Cl2) and the cuvette was equipped with a stirrer bar. The cuvette was […]

A short description of series [2]: U-tube sodium picrate transport experiment. To be noted: 1 mM in chloroform, 20 mM MOPS, 100 mM NaCl, pH 7.4, 25 °C, after 24 h, UV at 356 nm. How it is done: To assess if these compounds can act as cation carriers, U-tube experiments for sodium picrate transport were performed on 1, Cu(II)[1]Cl2 and Cu(II)[2]Cl2. […] Similarly, a U-tube experiment for chloride transport was performed using lucigenin.[4],[40]
5.7 Preparation of large unilamellar vesicles for CF release assays
A 50 mM 5(6)-carboxyfluorescein (CF) solution in MOPS buffer (20 mM MOPS, 100 mM NaCl, pH 7.4) was prepared by dissolving 5/6-CF in MOPS buffer, adding a sodium hydroxide (1M) solution dropwise until pH 11 was reached. The resulting solution was the slowly acidified to pH 7.4.
EYPC-cholesterol (4:1) 800 nm vesicles were prepared as described above, using the above mentioned 5(6)-carboxyfluorescein (CF) (50 mM) solution. […]
The U-tube was incubated in a water bath at 25 °C and the chloroform phase was stirred at 300 rpm during the entire experiment, ensuring efficient diffusion of any potential carrier-ion complex to the receiving phase. Aliquots (1 mL) were taken from the receiving phase and analysed for the presence of picrate by UV spectroscopy (at 356 nm). […]
Figure S11: U-tube metal picrate transport data for foldamer 1 (brown), Cu[2]Cl2 (black), Cu[1]Cl2 (green), and the control transporter, dibenzo-18-crown-6 (red). Absorbance at 356 nm. […]

The nature of a further series: Solubility. Type of series: physicochemical. The text has this: Mixing 1 or 2 with CuCl2 or CuCl provided green or blue complexes respectively. […] The blue complexes from the addition of CuCl gave very broad NMR spectra even after preparing fresh samples, which was ascribed to in situ oxidation of Cu(I); Cu(I)(TPA) complexes are very efficient one electron donors and will rapidly reduce alkyl halides[27] and oxygen.[28] Furthermore these blue products gave green solids when dried (see the ESI, Fig. S2 ^†).
Although alamethicin is a very active channel former, its use in the clinic is hampered by its high haemolytic activity.[52] […] It is known that the haemolytic activity of amphipathic peptides, including alamethicin, decreases substantially on a reduction of peptide hydrophobicity and hydrophobic moment.[56]

Take `CC(C)(C)OC(=O)C(C)(C)NC(=O)C(C)(C)NC(=O)C(C)(C)NC(=O)C(C)(C)NC(=O)C(C)(C)NC(=O)C(C)(C)NC(=O)C(C)(C)NC(=O)C(C)(C)n1cc(CN(Cc2ccccn2)Cc2ccccn2)nn1` [foldamer 1] (HELM PEPTIDE1{[CC(C)(C(=O)[*:2])n1cc(CN(Cc2ccccn2)Cc2ccccn2)nn1].[Aib].[Aib].[Aib].[Aib].[Aib].[Aib].[Aib].[CC(C)(C)O[*:1]]}$$$$V2.0): in series [1] (100 mM KBr, compound 10 µM), the “Apparent observed rate constant kobs, KBr” value is 3.3 10−3 s−1. The “Apparent observed rate constant kobs, KCl” value in series [1] (100 mM KCl, compound 10 µM) is on record as 3 10−3 s−1. Besides, the “Apparent observed rate constant kobs, KNO3” value in series [1] (100 mM KNO3, compound 10 µM) is on record as 4 10−3 s−1. Moreover, in series [1] (100 mM NaCl, compound 10 µM, methanol control 1 × 10−3 s−1), the “Apparent observed rate constant kobs, NaCl” value is 4 10−3 s−1. Further, the “sodium picrate transport across the bulk chloroform phase” value in series [2] is on record as “No transport across the bulk phase was observed”. In the series “Solubility”, this compound registered a solubility limit of 20 µM (≈ 20.4 µg/mL).
